Results from publication PMC10178848, “Modulating fast skeletal muscle contraction protects skeletal muscle in animal models of Duchenne muscular dystrophy” (The Journal of Clinical Investigation, 2023).

Tests used:
[1] = target: T1, KIT(D816V) (Homo sapiens, UniProt P10721, D816V); assay: KINOMEscan scanEDGE; format: binding; details: 20 uM
T1 construct: purchased Eurofins DiscoverX (KINOMEscan; SAFETYscan E/IC50 ELECT)

[2] = target: T2, GSK3B (Homo sapiens, UniProt P49841); assay: KINOMEscan scanEDGE; format: binding; details: 20 uM
T2 construct: purchased Eurofins DiscoverX (KINOMEscan; SAFETYscan E/IC50 ELECT)

[3] = target: T3, BRAF (Homo sapiens, UniProt P15056); assay: KINOMEscan scanEDGE; format: binding; details: 20 uM
T3 construct: purchased Eurofins DiscoverX (KINOMEscan; SAFETYscan E/IC50 ELECT)

[4] = target: T4, SRPK3 (Homo sapiens, UniProt Q9UPE1); assay: KINOMEscan scanEDGE; format: binding; details: 20 uM
T4 construct: purchased Eurofins DiscoverX (KINOMEscan; SAFETYscan E/IC50 ELECT)

[5] = test system: mouse TA muscle; assay: In situ TA force and lengthening injury; format: in vivo; details: oral
Protocol: Measurement of isometric force and eccentric injury response in situ was performed in mouse TA muscle based on published protocols ([30]). Mice were anesthetized with 2% isoflurane (0.7%–1.5% maintenance) on a 37°C platform. The distal tendon to the TA and EDL muscle was attached with 4-0 suture a servomotor (Aurora Scientific). The sciatic nerve was exposed at the knee for hook electrodes. For compound assessment, baseline isometric contraction was assessed at 25–175 Hz (9 mA, 300 ms) followed by 100 Hz stimuli every 5 minutes. After 15 minutes, compound was dosed PO, and recording continued for 4 hours followed by a second force frequency. For in situ eccentric injury, compound was administered PO, muscle was stimulated every 5 minutes at 100 Hz for 3.5 hours, and then 2 lengthening contractions were performed (10 min apart, 100 ms at 150 Hz, then lengthening 0.2 L0 at 2 L0/s and hold for 100 ms). Isometric force before and 10 minutes after the injury contractions was recorded.

[6] = target: T5, PDGFRA (Homo sapiens, UniProt P16234); assay: KINOMEscan scanEDGE; format: binding; details: 20 uM
T5 construct: purchased Eurofins DiscoverX (KINOMEscan; SAFETYscan E/IC50 ELECT)

[7] = target: T6, PRKCE (Homo sapiens, UniProt Q02156); assay: KINOMEscan scanEDGE; format: binding; details: 20 uM
T6 construct: purchased Eurofins DiscoverX (KINOMEscan; SAFETYscan E/IC50 ELECT)

[8] = test system: young mdx mice; assay: 3-week dosing of young (weaning) mdx mice, soleus histology; format: in vivo, mouse; details: post-weaning mdx mice, 3 weeks
Description: C57BL/6 (stock no. 000664), C57BL/10J (stock no. 000665, control for mdx experiments), C57BL/10ScSn-Dmd^mdx/J (mdx, stock no. 001801), and D2.B10 (DBA/2-congenic) Dmd^mdx (DBA/2J mdx, stock no. 013141) mice were from The Jackson Laboratory. Sprague-Dawley rats were purchased from Charles River Laboratories. For ex vivo experiments, mice were 10–16 weeks old. For in situ experiments, mice were 8–14 weeks of age. For in vivo chronic dosing studies, mdx and DBA/2J mdx were 4–5 weeks of age at study start. Dosing was via a 10 mL/kg suspension (1% methyl cellulose, 0.1% Tween 80 in water). For studies in 14-day-old preweaning mice, PO dosing was via syrup suspension (3 mg/kg/d). […]
For sterile muscle injury, mice were anesthetized with isoflurane and 50 μL cardiotoxin (12 × 10^–6 M, 217503, Millipore) injected in the TA muscle. […] 8 μm cryosections were cut and stained with H&E. For each analysis, more than 10 slides (per condition/group) containing 6 muscle sections/sample were used, and myofibers in the injured area were counted and measured with a Mirax digital scanner and HALO software ([68]). […] Image analysis was performed using ImarisX64 software (Bitplane AG), and fiber sizing was calculated using minimal Feret’s diameter ([69]). […] Fiber type, size, and central nucleation were quantified with analysis via SMASH ([70]) and ImageJ (NIH). […]

[9] = target: T7, VEGFR2 (Homo sapiens, UniProt P35968); assay: KINOMEscan scanEDGE; format: binding; details: 20 uM
T7 construct: purchased Eurofins DiscoverX (KINOMEscan; SAFETYscan E/IC50 ELECT)

[10] = target: T8, LKB1 (Homo sapiens, UniProt Q15831); assay: KINOMEscan scanEDGE; format: binding; details: 20 uM
T8 construct: purchased Eurofins DiscoverX (KINOMEscan; SAFETYscan E/IC50 ELECT)

[11] = test system: Neonatal Rat (P1) myofibrils; assay: Myofibril ATPase, neonatal rat; format: biochemical
Protocol: Myofibrils were prepared from various animals and tissues: rabbit psoas muscle and porcine cardiac muscle were purchased from Pel-Freez Biologicals. Human bicep and soleus muscle were purchased from BioIVT, and neonatal rat muscle was obtained in house. All myofibrils were prepared using published methods ([21]).
A lactate dehydrogenase/pyruvate kinase enzyme-coupled system ([62]) was used to monitor ATP hydrolysis rates in various muscle preparations. Rabbit psoas myofibrils were used for high-throughput screening at pCa 6.25 at 0.25 mg/mL. A multidrop cassette (Thermo Fisher Scientific) dispensed 10 μL of the coupled enzyme system, calcium, and myofibrils to 10 μL ATP, NADH and PEP to initiate the reaction prior to reading on a plate reader (Envision, Perkin Elmer) for 10 minutes per plate at room temperature. Hits were reconfirmed, and secondary assays were used to evaluate selectivity, including bovine cardiac myofibrils (pCa 5.86) and enzyme coupled hits with a hexokinase screen (Sigma-Aldrich).

[12] = test system: EDL muscles from mdx mice; assay: Ex vivo eccentric (lengthening) contraction injury, mdx EDL; set-up: species or system mouse
Protocol: Isometric force was measured ex vivo in mouse EDL and soleus muscle. EDL muscle eccentric injury was based on published protocols ([30]), with degree of lengthening and stimulation modified to yield a uniform drop in mdx isometric and peak force over 10 contractions. After isolation, muscle was mounted via 5-0 suture to a combination servomotor/force transducer (300C-LR, Aurora) between 2 electrodes connected to a stimulator (701C, Aurora) in Ringers solution at 27°C with continuously infused CO2/O2 gas mixture. Experiments were recorded with custom MATLAB software via a National Instruments PCIe-6321 board and 2090A BNC connector. Muscles were preincubated for 60 minutes with DMSO (final 0.1%)/compound before 10 eccentric contractions, 1 minute apart, with 100 milliseconds of isometric stimulation at 100 Hz and active lengthening of 0.1 L0 at a rate of 2 L0/s. After lengthening, muscles were held at 1.1 L0 with stimulation for 100 milliseconds (Supplemental Figure 2A).

T7 sequence (P35968 20-1356): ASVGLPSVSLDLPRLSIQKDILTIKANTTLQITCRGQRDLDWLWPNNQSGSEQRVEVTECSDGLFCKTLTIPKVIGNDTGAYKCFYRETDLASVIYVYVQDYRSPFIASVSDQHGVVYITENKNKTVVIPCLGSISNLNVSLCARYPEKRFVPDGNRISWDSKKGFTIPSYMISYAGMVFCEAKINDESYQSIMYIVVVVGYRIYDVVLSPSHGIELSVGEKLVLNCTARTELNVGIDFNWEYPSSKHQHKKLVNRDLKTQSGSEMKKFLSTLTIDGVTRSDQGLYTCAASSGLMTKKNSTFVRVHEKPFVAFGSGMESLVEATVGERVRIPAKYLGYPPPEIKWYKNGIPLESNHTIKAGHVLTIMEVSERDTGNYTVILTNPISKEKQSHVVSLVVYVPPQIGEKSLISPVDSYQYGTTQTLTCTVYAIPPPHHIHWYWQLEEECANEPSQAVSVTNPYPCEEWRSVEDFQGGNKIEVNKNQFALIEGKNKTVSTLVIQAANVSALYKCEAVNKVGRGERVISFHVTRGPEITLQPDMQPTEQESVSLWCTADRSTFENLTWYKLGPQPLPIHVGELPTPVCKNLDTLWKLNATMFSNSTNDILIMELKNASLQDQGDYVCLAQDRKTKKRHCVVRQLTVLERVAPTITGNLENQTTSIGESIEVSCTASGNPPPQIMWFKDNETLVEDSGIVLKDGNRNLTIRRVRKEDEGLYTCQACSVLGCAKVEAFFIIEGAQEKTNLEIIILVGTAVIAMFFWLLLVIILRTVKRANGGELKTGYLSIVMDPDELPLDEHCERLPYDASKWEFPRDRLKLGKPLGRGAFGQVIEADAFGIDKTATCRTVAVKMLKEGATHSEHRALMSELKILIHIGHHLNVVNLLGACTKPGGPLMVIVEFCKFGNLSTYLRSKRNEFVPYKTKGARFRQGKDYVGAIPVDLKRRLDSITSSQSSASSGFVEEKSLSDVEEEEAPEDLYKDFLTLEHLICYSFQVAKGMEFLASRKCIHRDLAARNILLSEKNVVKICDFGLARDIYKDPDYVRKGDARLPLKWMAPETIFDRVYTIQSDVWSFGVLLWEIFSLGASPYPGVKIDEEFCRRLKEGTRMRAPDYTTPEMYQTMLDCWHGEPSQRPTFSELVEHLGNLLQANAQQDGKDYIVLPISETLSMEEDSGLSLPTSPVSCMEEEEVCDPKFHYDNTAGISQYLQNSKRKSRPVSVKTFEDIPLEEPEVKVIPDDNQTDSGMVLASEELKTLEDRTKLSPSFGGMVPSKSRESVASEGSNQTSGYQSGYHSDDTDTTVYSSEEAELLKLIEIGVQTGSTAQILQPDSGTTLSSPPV
T5 sequence (P16234 24-1089): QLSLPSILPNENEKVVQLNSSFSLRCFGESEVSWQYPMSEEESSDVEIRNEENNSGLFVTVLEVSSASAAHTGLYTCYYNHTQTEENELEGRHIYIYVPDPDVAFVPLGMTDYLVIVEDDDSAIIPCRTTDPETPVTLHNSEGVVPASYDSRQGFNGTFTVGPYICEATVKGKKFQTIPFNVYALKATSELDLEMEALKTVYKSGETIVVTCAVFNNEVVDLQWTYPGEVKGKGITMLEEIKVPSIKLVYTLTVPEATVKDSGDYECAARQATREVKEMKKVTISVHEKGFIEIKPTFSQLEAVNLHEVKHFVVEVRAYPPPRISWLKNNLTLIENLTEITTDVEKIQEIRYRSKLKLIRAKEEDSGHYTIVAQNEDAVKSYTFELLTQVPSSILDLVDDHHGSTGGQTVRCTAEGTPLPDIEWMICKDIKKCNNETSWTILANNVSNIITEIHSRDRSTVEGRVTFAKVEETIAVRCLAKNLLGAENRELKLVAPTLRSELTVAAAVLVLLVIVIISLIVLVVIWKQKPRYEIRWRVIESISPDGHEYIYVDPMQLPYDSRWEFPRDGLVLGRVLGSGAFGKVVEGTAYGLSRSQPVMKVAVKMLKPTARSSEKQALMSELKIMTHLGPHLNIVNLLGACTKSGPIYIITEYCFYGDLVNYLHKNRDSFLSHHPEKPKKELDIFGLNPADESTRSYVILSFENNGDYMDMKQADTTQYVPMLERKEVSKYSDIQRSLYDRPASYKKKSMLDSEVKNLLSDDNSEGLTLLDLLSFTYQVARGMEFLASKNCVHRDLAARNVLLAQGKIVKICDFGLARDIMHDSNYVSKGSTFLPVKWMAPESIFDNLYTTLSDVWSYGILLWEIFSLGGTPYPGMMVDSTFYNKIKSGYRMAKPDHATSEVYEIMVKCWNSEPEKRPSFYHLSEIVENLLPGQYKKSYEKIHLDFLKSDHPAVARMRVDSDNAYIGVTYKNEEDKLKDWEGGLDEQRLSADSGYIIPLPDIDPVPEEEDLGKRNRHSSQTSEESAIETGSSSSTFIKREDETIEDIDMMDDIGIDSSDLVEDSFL
T4 sequence (Q9UPE1 whole entry): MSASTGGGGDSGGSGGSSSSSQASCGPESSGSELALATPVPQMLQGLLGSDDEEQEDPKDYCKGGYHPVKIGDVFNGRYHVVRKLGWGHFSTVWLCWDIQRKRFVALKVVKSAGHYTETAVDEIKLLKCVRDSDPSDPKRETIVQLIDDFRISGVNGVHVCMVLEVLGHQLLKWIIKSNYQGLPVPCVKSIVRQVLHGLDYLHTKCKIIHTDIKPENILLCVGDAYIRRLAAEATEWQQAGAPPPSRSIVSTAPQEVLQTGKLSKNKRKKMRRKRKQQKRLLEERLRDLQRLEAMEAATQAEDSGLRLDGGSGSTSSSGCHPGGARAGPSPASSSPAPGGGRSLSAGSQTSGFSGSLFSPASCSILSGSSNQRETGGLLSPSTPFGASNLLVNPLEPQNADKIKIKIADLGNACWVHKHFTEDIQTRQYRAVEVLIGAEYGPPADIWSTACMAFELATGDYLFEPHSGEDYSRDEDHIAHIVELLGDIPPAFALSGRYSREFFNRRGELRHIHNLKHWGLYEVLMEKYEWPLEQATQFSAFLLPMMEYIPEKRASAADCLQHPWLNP
T6 sequence (Q02156 whole entry): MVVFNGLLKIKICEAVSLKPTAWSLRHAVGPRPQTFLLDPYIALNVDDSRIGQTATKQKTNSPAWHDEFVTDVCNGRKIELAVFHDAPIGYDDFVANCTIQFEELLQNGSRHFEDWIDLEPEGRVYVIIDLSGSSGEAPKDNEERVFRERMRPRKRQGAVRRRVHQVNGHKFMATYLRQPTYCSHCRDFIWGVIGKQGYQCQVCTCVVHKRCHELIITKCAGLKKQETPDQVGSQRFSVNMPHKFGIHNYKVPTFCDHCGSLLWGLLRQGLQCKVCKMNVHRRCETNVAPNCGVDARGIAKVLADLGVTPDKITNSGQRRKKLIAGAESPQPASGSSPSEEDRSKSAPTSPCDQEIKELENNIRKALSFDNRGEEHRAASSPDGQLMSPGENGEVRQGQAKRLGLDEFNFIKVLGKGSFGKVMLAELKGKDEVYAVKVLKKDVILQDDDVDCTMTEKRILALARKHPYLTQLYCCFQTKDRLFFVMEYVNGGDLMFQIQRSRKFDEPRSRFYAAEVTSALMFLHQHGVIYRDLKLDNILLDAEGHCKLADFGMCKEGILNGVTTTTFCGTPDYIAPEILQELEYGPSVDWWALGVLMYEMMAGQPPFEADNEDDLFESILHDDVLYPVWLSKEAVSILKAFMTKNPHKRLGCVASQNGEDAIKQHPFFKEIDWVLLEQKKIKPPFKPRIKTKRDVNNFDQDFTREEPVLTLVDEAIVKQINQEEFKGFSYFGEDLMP
T3 sequence (P15056 whole entry): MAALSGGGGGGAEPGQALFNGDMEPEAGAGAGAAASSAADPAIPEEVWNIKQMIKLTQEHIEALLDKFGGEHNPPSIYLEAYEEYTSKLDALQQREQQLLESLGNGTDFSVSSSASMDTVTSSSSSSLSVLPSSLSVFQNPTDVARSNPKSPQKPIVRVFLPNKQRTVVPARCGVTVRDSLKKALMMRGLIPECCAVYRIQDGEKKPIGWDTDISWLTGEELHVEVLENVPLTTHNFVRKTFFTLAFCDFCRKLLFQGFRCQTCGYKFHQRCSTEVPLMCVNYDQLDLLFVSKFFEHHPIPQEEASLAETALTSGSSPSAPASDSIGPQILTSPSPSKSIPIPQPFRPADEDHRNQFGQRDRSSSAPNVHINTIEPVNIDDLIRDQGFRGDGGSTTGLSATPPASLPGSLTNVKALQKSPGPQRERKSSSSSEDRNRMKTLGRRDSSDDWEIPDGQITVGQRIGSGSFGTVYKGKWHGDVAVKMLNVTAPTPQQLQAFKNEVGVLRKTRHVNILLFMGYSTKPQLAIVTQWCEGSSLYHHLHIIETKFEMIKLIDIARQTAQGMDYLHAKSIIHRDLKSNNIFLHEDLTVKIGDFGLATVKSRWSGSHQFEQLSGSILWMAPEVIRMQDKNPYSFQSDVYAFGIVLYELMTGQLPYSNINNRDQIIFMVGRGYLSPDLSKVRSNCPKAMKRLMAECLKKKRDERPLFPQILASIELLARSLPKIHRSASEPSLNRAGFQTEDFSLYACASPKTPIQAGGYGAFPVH
T2 sequence (P49841 whole entry): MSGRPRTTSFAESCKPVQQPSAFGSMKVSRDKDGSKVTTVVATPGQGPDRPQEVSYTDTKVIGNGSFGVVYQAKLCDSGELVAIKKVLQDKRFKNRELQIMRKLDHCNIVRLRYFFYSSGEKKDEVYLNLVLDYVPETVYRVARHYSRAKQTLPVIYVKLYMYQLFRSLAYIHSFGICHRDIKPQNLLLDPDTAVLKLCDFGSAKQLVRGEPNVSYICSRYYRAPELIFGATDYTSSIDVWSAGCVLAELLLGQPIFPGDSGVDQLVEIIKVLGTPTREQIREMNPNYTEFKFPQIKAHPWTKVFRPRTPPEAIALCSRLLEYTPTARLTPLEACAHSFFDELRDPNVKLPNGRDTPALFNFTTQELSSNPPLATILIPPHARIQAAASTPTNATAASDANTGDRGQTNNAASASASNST

Structure (SMILES): O=c1ccc(-c2cnc(OCC(F)(F)F)nc2)nn1Cc1cncc(F)c1 [EDG-5506]
- binding, % of control [1]: 87 % of control
- binding, % of control [2]: 99 % of control
- binding, % of control [3]: 91 % of control
- binding, % of control [4]: 95 % of control
- decrease in isometric force at protective doses ([5]; mdx TA in situ): < 10%
- strength drop after in situ lengthening injury ([5]; mdx TA muscle, 2 lengthening contractions): dramatically improved
- binding, % of control [6]: 100 % of control
- binding, % of control [7]: 81 % of control
- central nucleation in soleus [8]: decreased central nucleation
- binding, % of control [9]: 77 % of control
- binding, % of control [10]: 86 % of control
- Maximum Inhibition (%) ([11]; neonatal rat (P1) myofibrils): 96%
- IC50 ([11]; neonatal rat (P1), 100% neonatal/embryonic MHC): 200 nM
- inhibition at 1 µM ([12]; Mus musculus, at ≤1 μM (near maximal protection), read-out: inhibition of isometric force): ~15%
- strength drop with repeated lengthening contractions ([12]; mdx EDL ex vivo): dramatically lowered
- concentration giving near maximal protection from strength drop ([12]; mdx EDL, 10 lengthening contractions, 1-hour preincubation): ≤ 1 µM
